From patent US20210177814A1, “USE OF GUANABENZ OR DERIVATES THEREOF FOR THE TREATMENT OF TYPE I IFN-DEPENDENT PATHOLOGIES” (INSERM (Institut National de la Santé et de la Recherche …, priority 2018, published 2021) come the findings set out here.

The target in the experiment is T1, TLR9 (Homo sapiens, UniProt Q9NR96).
T1 sequence (Q9NR96 26-1032): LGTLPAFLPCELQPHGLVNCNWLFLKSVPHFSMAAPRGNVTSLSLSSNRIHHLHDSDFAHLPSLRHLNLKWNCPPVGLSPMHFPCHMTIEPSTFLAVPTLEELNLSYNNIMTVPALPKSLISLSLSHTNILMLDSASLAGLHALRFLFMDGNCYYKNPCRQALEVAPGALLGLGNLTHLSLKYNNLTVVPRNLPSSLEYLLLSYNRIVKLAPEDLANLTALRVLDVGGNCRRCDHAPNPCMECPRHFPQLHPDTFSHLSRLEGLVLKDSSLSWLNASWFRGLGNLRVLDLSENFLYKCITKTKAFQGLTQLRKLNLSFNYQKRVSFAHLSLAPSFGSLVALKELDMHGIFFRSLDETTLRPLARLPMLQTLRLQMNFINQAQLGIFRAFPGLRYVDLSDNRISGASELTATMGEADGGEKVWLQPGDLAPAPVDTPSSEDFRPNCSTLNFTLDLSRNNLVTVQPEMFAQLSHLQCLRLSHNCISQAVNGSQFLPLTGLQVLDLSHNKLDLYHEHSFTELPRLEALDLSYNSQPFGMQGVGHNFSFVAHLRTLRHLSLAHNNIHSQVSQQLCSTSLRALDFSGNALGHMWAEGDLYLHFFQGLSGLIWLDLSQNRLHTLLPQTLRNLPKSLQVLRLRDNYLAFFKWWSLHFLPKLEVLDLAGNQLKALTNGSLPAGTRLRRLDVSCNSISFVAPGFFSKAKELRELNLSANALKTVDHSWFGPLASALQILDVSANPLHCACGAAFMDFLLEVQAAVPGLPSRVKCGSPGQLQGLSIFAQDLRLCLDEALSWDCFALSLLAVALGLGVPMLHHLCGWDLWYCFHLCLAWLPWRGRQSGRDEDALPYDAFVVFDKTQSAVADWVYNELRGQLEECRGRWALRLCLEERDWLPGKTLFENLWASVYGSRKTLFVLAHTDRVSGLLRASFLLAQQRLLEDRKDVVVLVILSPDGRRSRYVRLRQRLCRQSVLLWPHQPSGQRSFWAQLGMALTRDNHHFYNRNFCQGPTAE
Kind of experiment: HEK-Blue hTLR9 SEAP reporter assay. In kind it is cell-based. Also on record: expressed in transfected cells; host or cells: HEK-Blue (HEK 293) hTLR9 reporter cells. To be noted: 2.5 μM ODN 2006, GBZ 50 μM. As to the method:
FIG. 1: Guanabenz inhibits TLR3 and TLR9 activation in mouse Flt3-L DCs and human blood pDCs. A) Sorted bone marrow derived Flt3L-DCs were activated for 6 h with 10 μg/mL poly I:C LMW (TLR3 in DC1) or 1 μM ODN 1585 (TLR9 in pDCs). GBZ was added at 50 μM and inhibited IFN-β and Interleukin-6 (IL-6) production in activated cells. B) hTLR4, hTLR3, hTLR9 and hTLR7 expressed in the reporter HEK-Blue™ cells are inhibited by GBZ. TLR-expressing HEK-Blue™ cells were respectively activated with 100 ng/mL LPS, 10 μg/mL poly I:C LMW, 2.5 μM ODN 2006 or 5 μg/mL imiquimod, respectively. GBZ was added at 50 μM. TLR activity was measured indirectly through SEAP activity as absorbance at 405 nm. […] Protein concentration of IFN-α and TNF-α secreted were measured at the indicated time points or at 16 h. […]
Given the efficiency of GBZ on mouse TLR3 and TLR9, we turned to human TLRs, in order to extend the relevance of our observations. GBZ-mediated inhibition was first evaluated on NF-kB signaling by monitoring secreted alkaline phosphatase (SEAP) reporter levels in HEK-293 cells expressing TLR3, TLR4, TLR7, TLR9 (FIG. 1B). […] The functionality of the TLR9 transduction pathway was next evaluated by using phospho-flow detection of 40S ribosomal protein S6 (rpS6) phosphorylation, a well characterized early signaling event down-stream of TLR activation by LPS or viruses.

As for `NC(N)=N/N=C/c1c(Cl)cccc1Cl` [GBZ, 2-(2,6-dichlorobenzylidene)-hydrazinecarboximidamide], the “TLR9-dependent activation of the SEAP reporter” value is given as “inhibited”.
